Laboratory results published in patent US20250368714A1, “TREATMENT OF CANCER” (Immutep S.A.S., priority 2022, published 2025).
Like-named read-outs stand apart in the source and are kept apart here.

Columns and labels:
[1] = system: locally recurrent unresectable or metastatic TNBC; conditions: patients with CPS of 10 or more; cut-off Dec. 11, 2019; placebo-chemotherapy 5.6; cited from earlier work
[2] = system: Patients with HR+ HER2-Neg/Low after Failure of ET Based Therapy; conditions: No prior CDK4/6; cited from earlier work
[3] = system: HER2 negative hormone receptor-positive metastatic breast cancer patients; test: AIPAC Phase IIb study: paclitaxel+IMP321 vs paclitaxel+placebo, overall survival; assay type: in vivo, human; conditions: AIPAC paclitaxel plus placebo group
Experimental: A multicentre, placebo-controlled, double-blind, 1:1 randomised Phase IIb study in female HER2 negative hormone receptor-positive metastatic breast cancer patients was conducted. The study comprised two stages: • stage 1 which was an open-label, safety run-in stage consisting of cohorts 1 and 2 to confirm the recommended Phase II dose (RPTD) of IMP321 in combination with paclitaxel; and • stage 2 which was a placebo-controlled, double-blind randomisation stage, paclitaxel+IMP321 at the RPTD compared to paclitaxel+placebo.
The chemo-immunotherapy phase consisted of 6 cycles of 4 weeks. Patients received weekly paclitaxel at Days 1, 8 and 15 with adjunctive treatment of study agent (IMP321) on Days 2 and 16 of each 4-week cycle. After completion of the 6-cycle chemo-immunotherapy phase, responding or stable patients received study agent (IMP321) every 4 weeks during the maintenance phase for an additional period of up to 12 injections.
The chemo-immunotherapy phase consisted of 6 cycles of 4 weeks. Patients received weekly paclitaxel at Days 1, 8 and 15 with adjunctive treatment of study agent (placebo) on Days 2 and 16 of each 4-week cycle.
After completion of the 6-cycle chemo-immunotherapy phase, responding or stable patients received study agent (placebo) every 4 weeks during the maintenance phase for an additional period of up to 12 injections. […]

[4] = system: Patients with HR+ HER2-Neg/Low after Failure of ET Based Therapy; test: Efficacy of single agent chemotherapy after failure of ET based therapy; assay type: in vivo, human; conditions: Prior CDK4/6
Text: Efficacy of Single Agent Chemotherapy for Patients with HR^+ HER2-Neg/Low after Failure of ET Based Therapy

[5] = system: unresectable locally advanced or metastatic PD-L1 positive TNBC; conditions: PD-L1 inhibitor plus paclitaxel; cited from earlier work

Compound: pembrolizumab-chemotherapy: pembrolizumab in combination with chemotherapy (paclitaxel, nab-paclitaxel, or carboplatin-gemcitabine), KEYNOTE-355
- median PFS [1]: 9.7 months

Compound: CCCCCOC(=O)Nc1nc(=O)n([C@@H]2O[C@H](C)[C@@H](O)[C@H]2O)cc1F [Capecitabine, capecitabine]
- ORR (%) [2]: 19-30%
- OS (months) [2]: 9.3-18 months
- PFS (months) [2]: 2.8-5.9 months

Compound: CC(=O)O[C@H]1C(=O)[C@@]2(C)[C@H]([C@H](OC(=O)c3ccccc3)[C@]3(O)C[C@H](OC(=O)[C@H](O)[C@@H](NC(=O)c4ccccc4)c4ccccc4)C(C)=C1C3(C)C)[C@]1(OC(C)=O)CO[C@@H]1C[C@@H]2O [Paclitaxel, paclitaxel]
- OS ([3]; no prior CDK4/6 therapy): 20.4 months
- median OS ([3]; patients pre-treated with CDK4/6): 14.9 months
- ORR (%) [4]: 36%
- OS (months) [4]: 14.9 months
- PFS (months) [4]: 6.7 months
- ORR (%) [2]: 21-51%
- OS (months) [2]: 20.4-25.8 months
- PFS (months) [2]: 5.9-8.8 months

Compound: atezolizumab: PD-L1 inhibitor tested plus paclitaxel in IMpassion131
- PFS over paclitaxel alone [5]: did not demonstrate a statistically significant improvement in PFS
